“And” between values parts separate entries of the source, which are not always exact repeats. Equal values may be shown once.
Assay: molar heat capacity at constant pressure
Conditions: 101.33 kPa, Crystal, PPMS instrument (Quantum Design)

O=P([O-])([O-])[O-].[La+3] [lanthanum orthophosphate]
Conditions	molar heat capacity at constant pressure
9.994 K	0.1666 J/K/mol
10 K	0.1669 J/K/mol
10.01 K	0.1671 J/K/mol
10.19 K	0.1769 J/K/mol
10.2 K	0.1776 J/K/mol and 0.1771 J/K/mol
10.21 K	0.1778 J/K/mol
11.18 K	0.2376 J/K/mol
12.19 K	0.3139 J/K/mol
13.19 K	0.4068 J/K/mol
14.19 K	0.5187 J/K/mol
15.2 K	0.6528 J/K/mol
16.21 K	0.8094 J/K/mol
17.22 K	0.9882 J/K/mol
18.24 K	1.192 J/K/mol
19.25 K	1.422 J/K/mol
20.24 K	1.669 J/K/mol
21.28 K	1.955 J/K/mol
22.27 K	2.25 J/K/mol
23.28 K	2.587 J/K/mol
24.29 K	2.937 J/K/mol
25.31 K	3.319 J/K/mol
26.33 K	3.721 J/K/mol
27.36 K	4.152 J/K/mol
28.34 K	4.576 J/K/mol
29.38 K	5.046 J/K/mol
30.37 K	5.505 J/K/mol
31.4 K	6.006 J/K/mol
32.4 K	6.51 J/K/mol
33.41 K	7.04 J/K/mol
34.43 K	7.567 J/K/mol
35.43 K	8.121 J/K/mol
36.45 K	8.686 J/K/mol
37.45 K	9.258 J/K/mol
38.41 K	9.809 J/K/mol
38.46 K	9.827 J/K/mol
39.48 K	10.43 J/K/mol
40.48 K	11.02 J/K/mol
40.49 K	11.03 J/K/mol
42.49 K	12.25 J/K/mol
44.51 K	13.49 J/K/mol
46.53 K	14.76 J/K/mol
48.55 K	16.05 J/K/mol
50.57 K	17.36 J/K/mol
52.59 K	18.66 J/K/mol
54.6 K	19.95 J/K/mol
56.62 K	21.25 J/K/mol
58.64 K	22.56 J/K/mol
60.66 K	23.86 J/K/mol
62.68 K	25.14 J/K/mol
64.7 K	26.41 J/K/mol
66.72 K	27.64 J/K/mol
68.74 K	28.87 J/K/mol
70.74 K	30.08 J/K/mol
72.76 K	31.29 J/K/mol
74.78 K	32.47 J/K/mol
75.85 K	33.08 J/K/mol
76.8 K	33.62 J/K/mol
78.81 K	34.78 J/K/mol
80.81 K	35.87 J/K/mol
80.84 K	35.88 J/K/mol
85.86 K	38.64 J/K/mol
90.91 K	41.31 J/K/mol
95.96 K	43.8 J/K/mol
101 K	46.3 J/K/mol
106 K	48.66 J/K/mol
111.1 K	50.92 J/K/mol
116.1 K	53.11 J/K/mol
121.2 K	55.16 J/K/mol
126.2 K	57.26 J/K/mol
131.3 K	59.2 J/K/mol
136.3 K	61.11 J/K/mol
141.4 K	62.97 J/K/mol
146.4 K	64.73 J/K/mol
151.4 K	66.44 J/K/mol
156.5 K	68.1 J/K/mol
161.5 K	69.61 J/K/mol
166.5 K	71.14 J/K/mol
171.6 K	72.74 J/K/mol
176.6 K	74.33 J/K/mol
181.6 K	75.68 J/K/mol
186.7 K	77.05 J/K/mol
191.7 K	78.48 J/K/mol
196.7 K	79.89 J/K/mol
201.8 K	81.31 J/K/mol
206.8 K	82.59 J/K/mol
211.8 K	83.86 J/K/mol
216.9 K	85.21 J/K/mol
221.9 K	86.36 J/K/mol
226.9 K	87.35 J/K/mol
231.9 K	88.39 J/K/mol
237 K	89.46 J/K/mol
242 K	90.5 J/K/mol
247 K	91.49 J/K/mol
252.1 K	92.36 J/K/mol
257.1 K	93.28 J/K/mol
262.1 K	94.21 J/K/mol
267.1 K	95.29 J/K/mol
272.1 K	96.19 J/K/mol
277.1 K	97.31 J/K/mol
282.2 K	98.39 J/K/mol and 98.37 J/K/mol
287.2 K	99.41 J/K/mol
287.3 K	99.33 J/K/mol
292.2 K	100.36 J/K/mol
292.3 K	100.2 J/K/mol
297.3 K	100.95 J/K/mol
302.26 K	101.79 J/K/mol
302.33 K	101.79 J/K/mol
302.35 K	101.81 J/K/mol
307.29 K	102.41 J/K/mol
307.35 K	102.45 J/K/mol
307.37 K	102.44 J/K/mol
312.31 K	103.05 J/K/mol
312.37 K	102.95 J/K/mol
312.39 K	103 J/K/mol
317.33 K	103.53 J/K/mol
317.4 K	103.64 J/K/mol
317.42 K	103.68 J/K/mol
322.35 K	104.24 J/K/mol
322.44 K	104.25 J/K/mol
322.45 K	104.34 J/K/mol
327.36 K	105.12 J/K/mol
327.45 K	105.03 J/K/mol
327.48 K	104.97 J/K/mol
332.38 K	105.69 J/K/mol
332.46 K	105.73 J/K/mol
332.48 K	105.57 J/K/mol
337.4 K	106 J/K/mol
337.5 K	106.2 J/K/mol and 106.19 J/K/mol
342.43 K	106.41 J/K/mol
342.53 K	106.46 J/K/mol
342.55 K	106.5 J/K/mol
347.11 K	107.02 J/K/mol
347.2 K	106.86 J/K/mol
347.23 K	106.97 J/K/mol
351.79 K	107.32 J/K/mol
351.86 K	107.38 J/K/mol and 107.33 J/K/mol
356.73 K	107.65 J/K/mol
356.79 K	107.89 J/K/mol
356.81 K	107.7 J/K/mol
361.73 K	108.18 J/K/mol
361.79 K	108.22 J/K/mol
361.8 K	108.28 J/K/mol
366.74 K	108.45 J/K/mol
366.81 K	108.25 J/K/mol and 108.64 J/K/mol
371.74 K	108.81 J/K/mol
371.8 K	108.77 J/K/mol
371.82 K	108.81 J/K/mol
376.74 K	109.11 J/K/mol
376.8 K	109 J/K/mol
376.82 K	108.98 J/K/mol
381.74 K	109.41 J/K/mol
381.81 K	109.29 J/K/mol

Source: the NIST ThermoML archive (doi:10.1016/j.jct.2004.07.031)
